The supplement of paper PMC12819154, “High-throughput peptide-centric local stability assay extends protein–ligand identification to membrane proteins, tissues and bacteria” (Nature Structural & Molecular Biology, 2025)

Key:
Assay in all cases: pEC50 of peptide local stability change
UniProt P43329 = details: peptide sequence: HTEILPLYAR; direction: stabilized; replicate design: treated separately
Experimental: (§1)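 Dose-response HT-PELSA: desalted E. coli lysate treated separately per replicate with ATP (10 uM to 10 mM, 7 doses) for 30 min at 25 C, then a 4 min trypsin pulse at 22 C. Peptide ratio vs control was fitted with a 4-parameter log-logistic model (R2 > 0.9 in at least 3 replicates, CV of pEC50 <= 0.25); value is the mean pEC50 across replicates for stabilized or destabilized peptides.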

UniProt P00452 = details: peptide sequence: VKAVELFSLMMQER; direction: stabilized; replicate design: treated separately
Experimental: as §1

UniProt P76419 = details: peptide sequence: GGDCAPTREELLLAHK; direction: stabilized; replicate design: treated separately
Experimental: as §1

UniProt P21345 = details: peptide sequence: EVLGKFDK; direction: stabilized; replicate design: treated separately
Experimental: as §1

UniProt P06999 = details: peptide sequence: ELTQPDDVR; direction: stabilized; replicate design: treated separately
Experimental: as §1

UniProt P04993 = details: peptide sequence: VAAAVALTR; direction: stabilized; replicate design: treated separately
Experimental: as §1

UniProt P37634 = details: peptide sequence: HTVQSLIIESLKEK; direction: stabilized; replicate design: treated separately
Experimental: as §1

UniProt P23837 = details: peptide sequence: VDTLRPGQGVGLAVAR; direction: stabilized; replicate design: treated separately
Experimental: as §1

UniProt P77499 = details: peptide sequence: GKDLLALSPEDR; direction: stabilized; replicate design: treated separately
Experimental: as §1

UniProt P18392 = details: peptide sequence: EHIFEPFVR; direction: stabilized; replicate design: treated separately
Experimental: as §1

UniProt P11664 = details: peptide sequence: GAPETFDVAK; direction: stabilized; replicate design: treated separately
Experimental: as §1

UniProt P24193 = details: peptide sequence: DAALIGEVVERK; direction: stabilized; replicate design: treated separately
Experimental: as §1

UniProt P30015 = details: peptide sequence: TGDTPAQER; direction: stabilized; replicate design: treated separately
Experimental: as §1

UniProt P75828 = details: peptide sequence: YLDIINR; direction: stabilized; replicate design: treated separately
Experimental: as §1

UniProt P75957 = details: peptide sequence: KKPAEINSR; direction: stabilized; replicate design: treated separately
Experimental: as §1

UniProt P25742 = details: peptide sequence: GCETKPITGLAGK; direction: stabilized; replicate design: treated separately
Experimental: as §1

UniProt P06710 = details: peptide sequence: ALDVEQIR; direction: stabilized; replicate design: treated separately
Experimental: as §1

UniProt P31808 = details: peptide sequence: TGMTFDAQPGR; direction: stabilized; replicate design: treated separately
Experimental: as §1

UniProt P27278 = details: peptide sequence: TVAILGGESSGK; direction: stabilized; replicate design: treated separately
Experimental: as §1

UniProt P0A9P6 = details: peptide sequence: DVLGMAQTGSGK; direction: stabilized; replicate design: treated separately
Experimental: as §1

UniProt P17888 = details: peptide sequence: QQQALAALR; direction: stabilized; replicate design: treated separately
Experimental: as §1

UniProt P39342 = details: peptide sequence: AMVIAPCSR; direction: stabilized; replicate design: treated separately
Experimental: as §1

UniProt P21507 = details: peptide sequence: DVLGSAPTGTGK; direction: stabilized; replicate design: treated separately
Experimental: as §1

UniProt P31548 = details: peptide sequence: LPGELSGGQR; direction: stabilized; replicate design: treated separately
Experimental: as §1

UniProt P03007 = details: peptide sequence: VTDSLAVAR; direction: stabilized; replicate design: treated separately
Experimental: as §1

UniProt P0DMC5 = details: peptide sequence: EVMNHITANYLPLVVR; direction: stabilized; replicate design: treated separately
Experimental: as §1

UniProt P23874 = details: peptide sequence: ISVAGAQEK; direction: stabilized; replicate design: treated separately
Experimental: as §1

UniProt P15038 = details: peptide sequence: AVVNGEHSLLVLAGAGSGK; direction: stabilized; replicate design: treated separately
Experimental: as §1

UniProt P25888 = details: peptide sequence: DLMASAQTGTGK; direction: stabilized; replicate design: treated separately
Experimental: as §1

UniProt P33593 = details: peptide sequence: LADDVAVMSDGK; direction: stabilized; replicate design: treated separately
Experimental: as §1

UniProt P32143 = details: peptide sequence: AGIPDCDQTR; direction: stabilized; replicate design: treated separately
Experimental: as §1

UniProt P43329, sequence (P43329 whole entry): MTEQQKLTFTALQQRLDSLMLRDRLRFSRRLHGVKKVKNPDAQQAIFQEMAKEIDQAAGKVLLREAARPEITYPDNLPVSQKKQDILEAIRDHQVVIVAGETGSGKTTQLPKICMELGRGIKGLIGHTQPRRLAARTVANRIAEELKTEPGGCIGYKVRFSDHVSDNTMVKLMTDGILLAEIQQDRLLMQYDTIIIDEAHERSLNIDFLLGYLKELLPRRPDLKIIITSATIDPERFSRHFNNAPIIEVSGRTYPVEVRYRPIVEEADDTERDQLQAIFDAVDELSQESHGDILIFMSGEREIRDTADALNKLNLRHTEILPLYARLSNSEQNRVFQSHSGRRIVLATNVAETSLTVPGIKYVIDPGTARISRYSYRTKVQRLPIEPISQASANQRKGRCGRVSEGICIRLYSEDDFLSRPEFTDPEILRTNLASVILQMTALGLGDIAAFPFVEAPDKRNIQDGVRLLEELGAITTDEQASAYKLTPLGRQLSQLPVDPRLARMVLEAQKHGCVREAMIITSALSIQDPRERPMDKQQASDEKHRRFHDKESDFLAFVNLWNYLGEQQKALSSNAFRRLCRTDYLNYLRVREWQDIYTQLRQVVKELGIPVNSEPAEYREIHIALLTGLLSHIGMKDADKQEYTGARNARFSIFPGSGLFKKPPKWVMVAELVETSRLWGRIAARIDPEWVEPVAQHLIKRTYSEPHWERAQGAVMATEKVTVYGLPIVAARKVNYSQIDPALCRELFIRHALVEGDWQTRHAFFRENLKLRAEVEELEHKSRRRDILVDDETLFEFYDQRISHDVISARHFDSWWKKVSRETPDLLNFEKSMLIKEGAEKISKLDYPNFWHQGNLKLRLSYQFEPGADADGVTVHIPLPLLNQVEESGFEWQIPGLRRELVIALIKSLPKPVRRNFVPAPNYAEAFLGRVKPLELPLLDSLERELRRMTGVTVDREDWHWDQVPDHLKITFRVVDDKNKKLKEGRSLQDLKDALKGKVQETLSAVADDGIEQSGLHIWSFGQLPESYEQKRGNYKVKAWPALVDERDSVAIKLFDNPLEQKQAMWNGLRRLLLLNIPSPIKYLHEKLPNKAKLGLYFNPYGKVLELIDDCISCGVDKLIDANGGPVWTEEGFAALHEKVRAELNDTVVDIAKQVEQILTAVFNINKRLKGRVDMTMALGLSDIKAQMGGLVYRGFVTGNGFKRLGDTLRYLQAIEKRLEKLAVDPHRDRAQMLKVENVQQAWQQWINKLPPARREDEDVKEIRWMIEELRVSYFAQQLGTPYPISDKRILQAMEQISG
UniProt P17888, sequence (P17888 whole entry): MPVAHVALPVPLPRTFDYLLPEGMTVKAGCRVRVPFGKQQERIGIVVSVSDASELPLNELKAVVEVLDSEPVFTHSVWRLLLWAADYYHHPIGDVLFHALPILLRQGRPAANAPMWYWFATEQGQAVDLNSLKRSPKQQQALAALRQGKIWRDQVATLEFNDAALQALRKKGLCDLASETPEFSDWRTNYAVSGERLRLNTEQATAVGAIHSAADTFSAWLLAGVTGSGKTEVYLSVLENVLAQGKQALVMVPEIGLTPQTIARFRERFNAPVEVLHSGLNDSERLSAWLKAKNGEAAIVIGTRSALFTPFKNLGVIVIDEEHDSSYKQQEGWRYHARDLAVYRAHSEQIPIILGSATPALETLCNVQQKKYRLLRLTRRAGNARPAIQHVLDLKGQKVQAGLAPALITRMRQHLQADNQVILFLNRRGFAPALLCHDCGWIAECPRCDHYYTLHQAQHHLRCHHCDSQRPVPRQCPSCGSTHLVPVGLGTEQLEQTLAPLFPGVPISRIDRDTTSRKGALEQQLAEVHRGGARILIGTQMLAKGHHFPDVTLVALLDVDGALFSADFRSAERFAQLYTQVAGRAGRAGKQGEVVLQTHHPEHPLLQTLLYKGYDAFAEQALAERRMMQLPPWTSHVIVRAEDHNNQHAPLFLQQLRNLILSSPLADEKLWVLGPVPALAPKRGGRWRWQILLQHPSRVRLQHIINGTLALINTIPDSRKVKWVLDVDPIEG
UniProt P06710, sequence (P06710 whole entry): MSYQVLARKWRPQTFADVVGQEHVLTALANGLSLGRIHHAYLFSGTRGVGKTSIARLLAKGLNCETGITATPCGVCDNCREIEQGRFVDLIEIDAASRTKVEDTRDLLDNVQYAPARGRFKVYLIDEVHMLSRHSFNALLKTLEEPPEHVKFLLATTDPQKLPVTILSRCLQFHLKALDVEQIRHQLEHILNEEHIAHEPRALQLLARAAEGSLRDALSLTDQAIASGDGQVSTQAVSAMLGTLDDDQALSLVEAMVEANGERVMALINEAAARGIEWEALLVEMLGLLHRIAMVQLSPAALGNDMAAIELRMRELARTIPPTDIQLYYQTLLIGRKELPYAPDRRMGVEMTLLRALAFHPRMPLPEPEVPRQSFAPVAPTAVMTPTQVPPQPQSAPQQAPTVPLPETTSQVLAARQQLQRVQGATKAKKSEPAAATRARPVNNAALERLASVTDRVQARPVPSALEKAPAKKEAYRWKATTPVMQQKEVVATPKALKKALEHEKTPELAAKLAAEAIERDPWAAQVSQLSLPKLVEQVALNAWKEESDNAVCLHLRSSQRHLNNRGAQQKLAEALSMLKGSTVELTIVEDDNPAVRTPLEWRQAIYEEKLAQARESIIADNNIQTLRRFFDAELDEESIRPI
UniProt P21507, sequence (P21507 whole entry): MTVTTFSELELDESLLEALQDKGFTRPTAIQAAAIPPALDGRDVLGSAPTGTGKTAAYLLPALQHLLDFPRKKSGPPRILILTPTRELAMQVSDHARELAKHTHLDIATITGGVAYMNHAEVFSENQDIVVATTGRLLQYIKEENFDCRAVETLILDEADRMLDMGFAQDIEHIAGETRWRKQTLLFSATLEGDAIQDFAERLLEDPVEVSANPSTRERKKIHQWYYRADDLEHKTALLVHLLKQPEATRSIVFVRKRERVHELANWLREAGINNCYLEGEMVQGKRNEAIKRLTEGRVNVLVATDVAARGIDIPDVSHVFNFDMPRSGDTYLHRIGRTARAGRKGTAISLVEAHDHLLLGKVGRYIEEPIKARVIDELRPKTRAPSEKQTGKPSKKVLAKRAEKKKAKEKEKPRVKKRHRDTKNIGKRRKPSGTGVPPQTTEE
UniProt P75828, sequence (P75828 whole entry): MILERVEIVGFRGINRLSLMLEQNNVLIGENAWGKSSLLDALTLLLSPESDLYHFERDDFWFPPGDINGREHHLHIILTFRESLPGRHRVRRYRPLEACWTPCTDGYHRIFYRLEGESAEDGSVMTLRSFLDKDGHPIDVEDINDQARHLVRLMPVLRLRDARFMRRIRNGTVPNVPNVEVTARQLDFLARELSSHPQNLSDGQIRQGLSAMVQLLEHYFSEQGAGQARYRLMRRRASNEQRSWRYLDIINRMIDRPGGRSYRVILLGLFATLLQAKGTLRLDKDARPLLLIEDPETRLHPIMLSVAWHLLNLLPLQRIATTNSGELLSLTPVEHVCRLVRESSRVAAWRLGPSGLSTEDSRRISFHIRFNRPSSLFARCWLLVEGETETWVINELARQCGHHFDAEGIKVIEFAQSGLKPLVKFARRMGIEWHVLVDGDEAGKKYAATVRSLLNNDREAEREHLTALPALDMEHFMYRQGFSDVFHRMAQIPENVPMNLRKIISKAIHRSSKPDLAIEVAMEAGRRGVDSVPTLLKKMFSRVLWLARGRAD
UniProt P27278, sequence (P27278 whole entry): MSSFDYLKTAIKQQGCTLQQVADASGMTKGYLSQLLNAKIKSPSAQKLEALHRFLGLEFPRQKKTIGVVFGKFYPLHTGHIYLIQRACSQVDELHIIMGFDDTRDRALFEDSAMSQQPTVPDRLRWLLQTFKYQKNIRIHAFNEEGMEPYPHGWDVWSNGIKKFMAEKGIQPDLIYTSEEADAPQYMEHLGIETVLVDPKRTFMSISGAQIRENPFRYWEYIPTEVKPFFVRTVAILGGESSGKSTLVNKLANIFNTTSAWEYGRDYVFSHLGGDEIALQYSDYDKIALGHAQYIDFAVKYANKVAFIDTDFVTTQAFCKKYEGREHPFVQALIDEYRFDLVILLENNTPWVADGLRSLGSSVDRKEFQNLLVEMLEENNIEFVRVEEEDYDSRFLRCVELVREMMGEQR
UniProt P24193, sequence (P24193 whole entry): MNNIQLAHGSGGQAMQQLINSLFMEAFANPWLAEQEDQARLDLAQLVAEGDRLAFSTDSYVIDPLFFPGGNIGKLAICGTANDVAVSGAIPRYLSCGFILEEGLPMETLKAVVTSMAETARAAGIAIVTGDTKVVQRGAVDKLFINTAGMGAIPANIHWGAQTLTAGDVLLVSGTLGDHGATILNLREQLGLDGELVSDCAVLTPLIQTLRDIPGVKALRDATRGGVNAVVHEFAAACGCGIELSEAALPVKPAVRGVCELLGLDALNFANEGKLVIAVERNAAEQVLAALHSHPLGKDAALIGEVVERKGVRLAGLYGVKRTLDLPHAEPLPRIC
UniProt P75957, sequence (P75957 whole entry): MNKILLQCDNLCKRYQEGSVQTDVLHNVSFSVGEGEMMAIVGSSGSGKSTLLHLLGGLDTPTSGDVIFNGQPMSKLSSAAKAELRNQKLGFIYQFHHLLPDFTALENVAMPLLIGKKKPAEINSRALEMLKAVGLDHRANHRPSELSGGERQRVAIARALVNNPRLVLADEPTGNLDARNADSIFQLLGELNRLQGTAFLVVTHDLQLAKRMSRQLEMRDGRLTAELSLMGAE
UniProt P11664, sequence (P11664 whole entry): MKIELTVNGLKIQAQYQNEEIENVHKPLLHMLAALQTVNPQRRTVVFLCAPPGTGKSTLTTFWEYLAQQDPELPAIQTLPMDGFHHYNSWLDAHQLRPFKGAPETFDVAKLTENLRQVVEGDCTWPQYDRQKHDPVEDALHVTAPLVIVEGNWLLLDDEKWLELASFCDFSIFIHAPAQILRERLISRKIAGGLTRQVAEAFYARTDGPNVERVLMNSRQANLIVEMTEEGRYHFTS

Nc1ncnc2c1ncn2[C@@H]1O[C@H](COP(=O)(O)OP(=O)(O)OP(=O)(O)O)[C@@H](O)[C@H]1O [adenosine 5'-triphosphate]
Details	pEC50 of peptide local stability change
UniProt P0A9P6	3.67
UniProt P0DMC5	2.58
UniProt P00452	3.75
UniProt P03007	2.27
UniProt P04993	2.84
UniProt P06710	3.78
UniProt P06999	3.2
UniProt P11664	3.03
UniProt P15038	3.67
UniProt P17888	3.81
UniProt P18392	2.88
UniProt P21345	2.25
UniProt P21507	4.35
UniProt P23837	3.21
UniProt P23874	3.78
UniProt P24193	4.4
UniProt P25742	2.67
UniProt P25888	3.76
UniProt P27278	3.44
UniProt P30015	3.43
UniProt P31548	3.79
UniProt P31808	2.09
UniProt P32143	3.39
UniProt P33593	4.43
UniProt P37634	2.64
UniProt P39342	4.23
UniProt P43329	3.11
UniProt P75828	2.65
UniProt P75957	3.56
UniProt P76419	3.74
UniProt P77499	3.9
